These are literature values, as cited in US20100150991A1, “Combination Wound Therapy” (priority 2008, published 2010).

Each structure is given as a SMILES string.

One data set concerns acute and chronic wounds. Particulars: topical CO2, acute and chronic wounds; Wollina et al 2004.
For data set [1] the following is noted: CO2 insufflation compared with air insufflation; van der Linden and Persson 2003.
Data set [2] concerns neutrophil adhesion, platelets, and pro-inflammatory cutokines in the circulating blood. Particulars: doses of less than 80 ppm; by reducing neutrophil adhesion, platelets and pro-inflammatory cytokines in circulating blood.
For data set [3] the following is noted: topical application of gaseous nitric oxide.

Take `O=C=O` [CO2, carbon dioxide]: in the data set with acute and chronic wounds, the “clinical evidence in wounds” value was “increased granulation tissue and reduction of discharge and malodor”. Further, the rates of infection result in data set [1] was “lower rates of infection than air insufflation”.

Consider `[N]=O` [NO, nitric oxide], for which the anti-inflammatory effect entry in data set [2] was “anti-inflammatory effect”. The “half life of NO in contact with tissues” value in data set [3] is 6 min.
